Entries after “also recorded” stand apart in the source; their conditions may differ. Like-named read-outs stand apart in the source and are kept apart here.
What was measured:
[1] = cited from earlier work
[2] = cited from earlier work; remark: listed apart in the source
Gtf2i cKO mice [3] = assay: Intra-cortical microstimulation (ICMS) and EMG recording (corticospinal output); format: in vivo; details: acute 4-AP 2 mg/kg i.p., test 30 to 60 minutes after injection; cKO and control mice
Method: ICMS and EMG recording protocol was adopted from previous studies (71, 72). Each animal was anesthetized with ketamine-xylazine (100 mg/kg ketamine, 10 mg/kg xylazine, i.p.). Anesthesia level was maintained at a steady level to that animal was unresponsive to toe pinch while muscle tone was present.
A digital stereotaxic frame was used to mount the animal's head and guide stimulation electrode (stainless steel, 0.5 MOhm; World Precision Instruments) over an array of motor cortical sites (0.9 mm caudal and 0.6 mm rostral to Bregma, 0.9 mm to 1.8 mm lateral to midline, with 300 μm spacing between sites). Stimulation electrode was inserted into the cortex at 500 μm depth, targeting layer V motor neurons. The exposed brain area was immersed with silicon oil to avoid dehydration. Electrical stimulation (biphasic, 0.2 ms pulse width, 333 Hz, 45 ms) was adjusted between 100 to 300 μA and located at the position that has the lowest threshold to trigger EMG signal. Stimulation intensity of two folds of threshold was then used for EMG recording and analysis. To perform EMG recording, an incision was made on hindlimb to expose the muscles while fascia remained intact. […] EMG signals were acquired using differential AC amplifier (1700, A-M Systems, WA) with 10-1000 Hz bandpass filter, sampled at 5 kHz using a digitizer (Digidata 1440A, Axon Instruments), and analyzed by pClamp Software. […]

Gtf2i cKO mice [4] = assay: Evoked field potential recordings in corpus callosum; format: in vivo; details: acute 4-AP administration
Method: In vivo evoked field potential recording in corpus callosum was referenced to that from in vitro studies (69, 70). Animals were anesthetized with urethane (1,000 mg/kg) and placed on a stereotaxic instrument. Body temperature was maintained by thermostat at 37.5-38° C. Craniotomy was performed and dura was kept intact. Stainless steel stimulation electrode (300˜500 kOhm, WPI) was positioned in corpus callosum in left hemisphere (1.5 mm posterior to Bregma, 1 mm lateral from midline, 1,000˜1,300 μm beneath cortical surface), and tungsten recording electrode (2˜3 MOhm, FHC) was positioned in corpus callosum at same coronal plane in right hemisphere (1.5 mm posterior to Bregma, 1 mm from midline, 1,000˜1,300 μm beneath cortical surface). Electrical stimulation (0˜200 uA, 0.2 ms pulse width, 0.2 Hz) was delivered while both positions of stimulation and recording electrodes were slightly adjusted to optimize signal. Signals were filtered at 0.1-3,000 Hz and gained at 1,000 times (Model 1700, A-M Systems), digitized and sampled at 10,000 Hz (Digidata 1440A, Molecular Devices), and analyzed offline (Clampfit). […] Response amplitude was determined by measuring the vertical distance from negative peak to the tangent joining preceding and following positivities. […]

Gtf2i cKO mice [5] = assay: Horizontal ladder walking test; format: in vivo; details: acute 4-AP 1 mg/kg i.p., three hours post administration
Method: Mice were tested for their ability to walk on a horizontal ladder with irregularly spaced rungs, following the procedure described previously (44). Animals were trained to cross the ladder until their performance achieved the plateau (with a forelimb error of 20% or less). The irregular pattern was changed from trial to trial during training. All trials were video recorded with Hotshot e64 and paw placement was analyzed. The paw placement on rungs were categorized as Hit (platar contact and digits closure), Miss (paw falls between rungs) and Slip (imprecise contact with one or few digits). Experimenter was blinded to genotypes.
Mice were habituated to needle injections (i.p.) for three days before behavioral tests, by two i.p. injections of 200 μL of saline administered per day. […] All behavioral tests were therefore accomplished three hours post systemic administration. Saline-injected mice in each genotype (Control or cKO mice) were referred as the baseline group for the treatment group, which was injected with 4-AP. Experimenter was blinded to genotypes.

Gtf2i cKO mice [6] = assay: Three-chamber social preference test; format: in vivo; details: acute 4-AP 1 mg/kg i.p., three hours post administration
Method: Stranger mice were wildtype S129 Sv males (Jackson Laboratory) with matched age and body weight to test mice. Stranger mice were habituated by placing them inside an inverted wire cup for 30 min, two sessions per day for three consecutive days before tests. Each stranger mouse was used a maximum of two times per day. The social test apparatus was made of a clear Plexiglas box (65 cm (L)×44 cm (W)×30 cm (H)) with a removable floor and partitions dividing the box into left, center, and right chambers. The center chamber (21 cm×22 cm) was half the width of the left and right chambers (each is 21 cm×44 cm). These three chambers were interconnected with 5 cm openings between each chamber that could be closed or opened manually with a lever-operated door. The inverted wire cups containing the stranger mice were cylindrical, 10 cm in height, with a bottom diameter of 10 cm and with metal bars spaced 0.8 cm apart. A weighted cup was placed on top of the inverted wire cups to prevent the test mice from climbing onto the wire cup. […] Then, experimenter blinded to genotypes analyzed for timespent in close proximity to the stranger mouse or object was analyzed using the Noldus Ethovison XT software. Social preference index was calculated as follows: (time in close interaction with stranger)/(time in close interaction with object). […]

Shaker channels = details: at concentration of 1 mM; cited from earlier work
[7] = system: normal adult myelinated axons; details: cited from earlier work
[8] = system: chronically injured spinal cord of guinea pigs; details: cited from earlier work
[9] = oral, non-sustained release, animals; cited from earlier work
[10] = cited from earlier work; remark: listed apart in the source
[11] = patients with MS, all studies; cited from earlier work
[12] = in vivo; cited from earlier work
N-type calcium channels = N-type calcium channels (Homo sapiens, UniProt Q00975); details: read-out: EC50 for activation of N-type calcium channels; cited from earlier work
[13] = biological target: P/Q-type calcium channels (Homo sapiens, UniProt O00555); details: read-out: EC50 for activation of P/Q-type calcium channels; cited from earlier work
L-type calcium channels = details: read-out: EC50 for activation of L-type calcium channels; cited from earlier work
[14] = phosphate salt; does not require refrigeration; cited from earlier work
Gtf2i cKO mice [15] = assay: Number of myelinating oligodendrocytes (immunofluorescence); format: in vivo; details: clemastine 10 mg/kg daily by gastric gavage for 14 days
Method: Basic immunofluorescence procedure was used as previously described (68). Mice were deeply anesthetized with isoflurane and transcardially perfused with 15 ml ice-cold PBS solution followed by 15 ml fresh ice-cold 4% paraformaldehyde (PFA) in PBS. Brains were dissected and kept in 4% PFA overnight at 4° C. and then sectioned at 100 μm thickness by vibratome (Leica). Floating brain slices were washed 3 times, 5 min each, with PBS and permeabilized with 1.2% Triton X-100 in PBS for 15 min at room temperature. Slices were then washed 3 times, 5 min each, followed by blocking with 5% normal goat serum, 2% BSA, 0.2% Triton X-100 in PBS for 1 h at room temperature. Primary antibodies diluted in blocking buffer were applied to sections overnight at 4° C. […]
To quantify cellular properties in the cortex, images were taken by an experimenter blinded to genotypes with a 10× magnification at the motor cortex area at bregma 0.5 mm. […] The midline of the CC was imaged at the same bregma, using a 40× magnification, and the whole depth of the CC was imaged by taking 10 images as part of a Z-stack serial imaging, and then all images were stacked together to a single image which was then analyzed for quantification. Cell numbers were quantified blindly with automation using ImageJ. […] The pixel intensity of H3ac and H3K9me3 was quantified using ImageJ, as was previously described (37). […]

socially isolated mice = details: cited from earlier work
rats = details: cited from earlier work

Sequence of P/Q-type calcium channels (O00555 whole entry): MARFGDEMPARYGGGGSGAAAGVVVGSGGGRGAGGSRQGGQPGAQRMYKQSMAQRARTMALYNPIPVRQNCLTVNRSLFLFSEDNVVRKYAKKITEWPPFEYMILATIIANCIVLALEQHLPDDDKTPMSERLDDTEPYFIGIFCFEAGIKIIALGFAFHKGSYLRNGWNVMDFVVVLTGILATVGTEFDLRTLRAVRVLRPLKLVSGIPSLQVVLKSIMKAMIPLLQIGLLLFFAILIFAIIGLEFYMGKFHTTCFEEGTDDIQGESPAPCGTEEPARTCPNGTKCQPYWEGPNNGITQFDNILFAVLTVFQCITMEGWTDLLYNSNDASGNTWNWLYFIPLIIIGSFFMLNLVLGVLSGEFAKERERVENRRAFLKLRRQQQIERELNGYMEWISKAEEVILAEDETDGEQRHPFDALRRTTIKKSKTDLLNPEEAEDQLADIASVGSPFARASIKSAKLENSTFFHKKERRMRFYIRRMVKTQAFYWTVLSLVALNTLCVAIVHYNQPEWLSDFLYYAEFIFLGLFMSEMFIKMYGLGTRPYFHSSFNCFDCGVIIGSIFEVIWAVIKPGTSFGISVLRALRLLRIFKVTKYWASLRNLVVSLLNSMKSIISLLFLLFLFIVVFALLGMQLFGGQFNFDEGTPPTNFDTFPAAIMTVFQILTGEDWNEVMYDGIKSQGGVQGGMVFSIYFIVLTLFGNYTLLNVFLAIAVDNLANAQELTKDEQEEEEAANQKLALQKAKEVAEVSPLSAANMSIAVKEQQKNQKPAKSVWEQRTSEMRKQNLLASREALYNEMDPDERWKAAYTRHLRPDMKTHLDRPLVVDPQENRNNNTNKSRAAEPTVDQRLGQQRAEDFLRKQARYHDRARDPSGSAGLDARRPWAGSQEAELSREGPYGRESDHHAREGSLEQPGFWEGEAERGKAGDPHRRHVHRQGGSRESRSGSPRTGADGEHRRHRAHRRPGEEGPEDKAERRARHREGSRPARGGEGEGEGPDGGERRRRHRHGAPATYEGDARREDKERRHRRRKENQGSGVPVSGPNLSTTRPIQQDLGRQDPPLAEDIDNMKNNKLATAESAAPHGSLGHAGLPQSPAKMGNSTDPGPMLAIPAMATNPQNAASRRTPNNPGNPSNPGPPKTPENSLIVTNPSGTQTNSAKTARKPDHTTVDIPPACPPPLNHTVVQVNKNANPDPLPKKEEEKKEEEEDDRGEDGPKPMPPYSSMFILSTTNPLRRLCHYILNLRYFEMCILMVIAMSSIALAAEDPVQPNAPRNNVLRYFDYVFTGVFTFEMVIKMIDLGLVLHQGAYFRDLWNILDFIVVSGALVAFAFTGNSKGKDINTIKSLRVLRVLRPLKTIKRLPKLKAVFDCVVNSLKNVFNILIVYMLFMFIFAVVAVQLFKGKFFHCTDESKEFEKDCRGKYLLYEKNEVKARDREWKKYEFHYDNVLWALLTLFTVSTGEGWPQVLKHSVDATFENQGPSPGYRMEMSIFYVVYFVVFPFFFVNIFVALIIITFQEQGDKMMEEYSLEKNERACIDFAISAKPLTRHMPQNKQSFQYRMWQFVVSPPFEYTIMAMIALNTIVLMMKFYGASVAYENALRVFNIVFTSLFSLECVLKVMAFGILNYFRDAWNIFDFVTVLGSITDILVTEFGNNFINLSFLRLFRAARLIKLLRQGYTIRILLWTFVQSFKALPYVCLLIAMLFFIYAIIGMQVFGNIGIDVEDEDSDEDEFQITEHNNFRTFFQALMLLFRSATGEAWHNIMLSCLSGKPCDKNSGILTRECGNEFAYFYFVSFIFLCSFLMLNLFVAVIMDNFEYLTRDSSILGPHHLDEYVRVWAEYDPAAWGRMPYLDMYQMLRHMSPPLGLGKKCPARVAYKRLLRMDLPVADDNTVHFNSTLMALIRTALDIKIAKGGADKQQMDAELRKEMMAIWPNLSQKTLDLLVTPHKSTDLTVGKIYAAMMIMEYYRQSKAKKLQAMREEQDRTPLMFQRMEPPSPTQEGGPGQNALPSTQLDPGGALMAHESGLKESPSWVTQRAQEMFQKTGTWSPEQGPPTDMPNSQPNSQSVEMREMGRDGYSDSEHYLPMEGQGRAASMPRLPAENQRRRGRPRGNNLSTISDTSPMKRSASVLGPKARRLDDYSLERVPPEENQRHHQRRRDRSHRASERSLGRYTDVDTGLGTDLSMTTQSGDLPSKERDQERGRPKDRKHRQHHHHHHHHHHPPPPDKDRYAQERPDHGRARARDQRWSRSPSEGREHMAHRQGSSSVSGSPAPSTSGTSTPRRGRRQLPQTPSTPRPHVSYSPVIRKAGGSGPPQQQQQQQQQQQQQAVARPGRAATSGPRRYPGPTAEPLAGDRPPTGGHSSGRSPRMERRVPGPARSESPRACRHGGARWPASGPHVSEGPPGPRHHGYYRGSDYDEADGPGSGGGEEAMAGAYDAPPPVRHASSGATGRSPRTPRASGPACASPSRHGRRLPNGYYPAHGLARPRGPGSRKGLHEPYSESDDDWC
Sequence of P/Q-type calcium channels (P54284 whole entry partner): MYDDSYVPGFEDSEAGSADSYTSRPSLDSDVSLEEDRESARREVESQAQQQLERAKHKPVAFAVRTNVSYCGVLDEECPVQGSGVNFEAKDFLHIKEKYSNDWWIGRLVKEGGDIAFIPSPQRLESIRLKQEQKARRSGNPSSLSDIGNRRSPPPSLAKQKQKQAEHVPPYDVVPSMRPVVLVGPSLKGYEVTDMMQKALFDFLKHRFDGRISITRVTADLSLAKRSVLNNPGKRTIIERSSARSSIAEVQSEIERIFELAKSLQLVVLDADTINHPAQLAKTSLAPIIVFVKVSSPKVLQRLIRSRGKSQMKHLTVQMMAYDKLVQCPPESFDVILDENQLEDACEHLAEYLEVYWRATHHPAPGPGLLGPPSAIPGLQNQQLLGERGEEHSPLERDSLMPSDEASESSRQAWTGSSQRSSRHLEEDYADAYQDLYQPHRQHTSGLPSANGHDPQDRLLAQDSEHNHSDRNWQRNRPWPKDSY
Sequence of P/Q-type calcium channels (P54289 25-946 partner limits assumed): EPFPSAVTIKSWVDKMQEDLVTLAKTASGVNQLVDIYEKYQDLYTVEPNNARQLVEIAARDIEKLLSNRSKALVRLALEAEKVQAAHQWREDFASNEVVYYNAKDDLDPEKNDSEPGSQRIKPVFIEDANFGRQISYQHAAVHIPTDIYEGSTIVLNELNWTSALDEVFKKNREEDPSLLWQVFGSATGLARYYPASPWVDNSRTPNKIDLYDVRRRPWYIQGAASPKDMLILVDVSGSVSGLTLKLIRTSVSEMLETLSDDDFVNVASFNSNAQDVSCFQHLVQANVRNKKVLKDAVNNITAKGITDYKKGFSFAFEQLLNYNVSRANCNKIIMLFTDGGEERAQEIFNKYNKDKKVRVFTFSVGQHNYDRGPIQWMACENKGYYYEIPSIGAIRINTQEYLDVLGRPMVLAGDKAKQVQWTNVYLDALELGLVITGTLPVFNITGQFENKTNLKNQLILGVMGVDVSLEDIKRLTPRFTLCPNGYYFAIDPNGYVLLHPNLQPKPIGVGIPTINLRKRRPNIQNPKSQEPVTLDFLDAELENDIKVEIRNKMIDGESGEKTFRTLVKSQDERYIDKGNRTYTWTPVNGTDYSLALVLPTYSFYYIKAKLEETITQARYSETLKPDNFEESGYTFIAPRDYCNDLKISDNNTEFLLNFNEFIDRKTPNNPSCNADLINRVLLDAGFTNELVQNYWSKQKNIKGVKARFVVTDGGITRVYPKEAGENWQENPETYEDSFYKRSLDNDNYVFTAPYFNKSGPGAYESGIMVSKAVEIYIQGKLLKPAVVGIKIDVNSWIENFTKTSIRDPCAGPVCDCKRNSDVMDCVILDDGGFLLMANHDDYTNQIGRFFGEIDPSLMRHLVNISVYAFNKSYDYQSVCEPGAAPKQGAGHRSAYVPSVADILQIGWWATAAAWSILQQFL
Sequence of P/Q-type calcium channels (P54289 947-1103 partner limits assumed): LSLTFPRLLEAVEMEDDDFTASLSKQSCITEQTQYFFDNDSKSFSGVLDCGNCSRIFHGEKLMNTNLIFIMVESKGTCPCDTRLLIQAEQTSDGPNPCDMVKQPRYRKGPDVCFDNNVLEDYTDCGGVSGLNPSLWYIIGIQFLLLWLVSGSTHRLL

Compound: Nc1ccncc1N.O=P(O)(O)O [Amifampridine, pyridine-3,4-diamine]
- Time to maximum concentrations in blood plasma ([1]; 91 healthy subjects, after a fatty meal): 1.3 (±0.9) hours
- Time to maximum concentrations in blood plasma ([1]; 91 healthy subjects, without food): 0.6 (±0.25) hours
- Area under the curve (AUC) ([1]; 91 healthy subjects): 117 ± 77 ng·h/mL
- Biological half-life ([1]; 91 healthy subjects): 2.5±0.7 hrs
- AUC increase in slow metabolizers as compared to fast metabolizers ([1]; N-acetyltransferase activity): up to 9 fold
- Eliminated via kidneys and urine as N-acetylamifampridine ([1]; human, in vivo): 74-81%
- Eliminated via kidneys and urine in unchanged form ([1]; human, in vivo): 19%
- Absorbed from the gut ([1]; oral): 93-100%
- Solubility in water ([2]; 20° C.): 25 mg/mL
- Solubility in diethyl ether [2]: only slightly
- Solubility in methanol, ethanol and hot water [2]: readily soluble

Compound: Nc1ccncc1 [4-AP, 4-aminopyridine]
- EMG peak amplitude (cortico-spinal tract) (Gtf2i cKO mice [3]): increased significantly; also recorded: increased following 4-AP acute administration
- EMG response latency (cortico-spinal tract) (Gtf2i cKO mice [3]): significantly shortened; also recorded: significantly decreased and normalized to control levels
- Peak amplitude of evoked potential in corpus callosum (Gtf2i cKO mice [4]): increased following 4-AP acute administration and normalized to control levels
- Peak latency of evoked potential in corpus callosum (Gtf2i cKO mice [4]): significantly decreased and normalized to control levels
- Fine motor skills, horizontal irregular ladder walking, forelimb and hindlimb (Gtf2i cKO mice [5]): normalized fine motor skills; also recorded: rescued
- Social preference (index), three-chamber test (Gtf2i cKO mice [6]): normalized social preference; also recorded: decreased and normalized to control levels
- Inhibition of Shaker channels (Shaker channels): selectively and reversibly inhibits
- Concentrations causing gradual depolarization of the axon resting potential [7]: above 1 mM
- Concentrations at which the action potential shows little or no sensitivity ([7]; normal adult myelinated axons): below 100 μM
- Most effective concentration [8]: about 10 μM
- Time of peak plasma concentrations [9]: within one hour
- Cmax ([10]; 10 mg oral solution): 42.7 ng/mL
- Absorption from the gastrointestinal tract ([10]; oral): completely absorbed
- Absolute bioavailability ([10]; two formulations of IR tablets): 95%
- Incidence of adverse effects [11]: less than 5%

Compound: CC[N+](CC)(CC)CC.[Br-] [TEA, Tetraethylammonium]
- Oral activity [12]: not orally active

Compound: CCCn1cnc2c(NCc3ccc(C)s3)nc(N[C@H](CC)CO)nc21 [GV-58]
- EC50 (N-type calcium channels): 6.8 µM
- EC50 [13]: 9.9 µM
- EC50 (L-type calcium channels): > 100 µM

Compound: Nc1ccncc1N.O=P(O)(O)O [amifampridine phosphate, 4-aminopyridine-3-ylammonium dihydrogen phosphate]
- Solubility in water ([2]; phosphate salt): readily soluble in water
- Stability [14]: stable

Compound: CN1CCCC1CCOC(C)(c1ccccc1)c1ccc(Cl)cc1 (stereo not shown) [Clemastine]
- Number of myelinating oligodendrocytes (mOLs) in cortex and CC midline (Gtf2i cKO mice [15]): normalized
- Number of myelinating oligodendrocytes (mOLs) in cortex and CC midline (Gtf2i cKO mice [15]; listed as clemastine): significantly increased and normalized to control levels
- Impaired myelination (socially isolated mice; oral clemastine, prolonged social isolation): rescued
- Social avoidance behavior (socially isolated mice; oral, 2 weeks, adult mice following prolonged social isolation): successfully reverse social avoidance behavior

Compound: Opicinumab: fully human monoclonal antibody, LINGO-1 protein antagonist (Anti-Lingo-1)
- Remyelination (rats): 90%

Reference: US11730769B2, “Compositions and methods for Williams Syndrome (WS) therapy” (MASSACHUSETTS INSTITUTE OF TECHNOLOGY, priority 2017, dated 2023)
